# Assay results published in US20180256673A1, “METHODS FOR TREATING FUNGAL INFECTIONS” (priority 2015, published 2018).
# Like-named read-outs stand apart in the source and are kept apart here. Starred links: 1 amine or outer side, 2 acyl side, 3 side chain; linkers in the order of their positions; H or OH if unused. Positions of bridges follow the written chain, without caps; N, C: chain ends. Non-standard residues stand in square brackets, D forms with d. Residues, ends and D or L forms follow the SMILES beside them. *: point of attachment. pTerphenylCO(4''-OnC5H11) = CCCCCOc1ccc(-c2ccc(-c3ccc(C(=O)*)cc3)cc2)cc1; Orn(4R-OH,5R-OH) = O=C([C@H](C[C@@H](O)[C@@H](O)N[*:3])N[*:1])[*:2]; hTyr(3S-OH,4S-OH) = N[C@H](C(=O)O)[C@H](O)[C@@H](O)c1ccc(O)cc1; Pro(3S-OH,4S-Me) = C[C@H]1CN[C@H](C(=O)O)[C@H]1O; Hyp = O=C(O)[C@@H]1C[C@@H](O)CN1
# Tests used:
# C. krusei ATCC 6258 [1] = assay: microbe, parasite or virus in culture; type: cell-based, Candida krusei; details: for MIC: Pichia kudriavzevii
# [2] = test system: C. glabrata ATCC 90030, ATCC 2001; assay: Broth microdilution MIC (CLSI), Examples 3 and 4; details: Nakaseomyces glabratus
# Experimental: (§1) Antifungal susceptibility testing. Candida strains were cultured aerobically at 35° C. on SDA plates or in RPMI 1640 broth (pH 7.0). […] MIC assays were performed in triplicate.
# [3] = test system: C. albicans vaginal isolates; assay: Susceptibility testing of VVC clinical isolates at pH 7 and 4 (CLSI M27-A3); type: cell-based, Candida albicans; details: Candida albicans
# C. krusei ATCC 6258 [4] = assay: Broth microdilution MIC (CLSI), Examples 3 and 4; details: Pichia kudriavzevii, ATCC6258, 24 h, read-out: Broth MIC
# Experimental: as §1
# Candida albicans = assay: Broth microdilution of invasive fungal isolates (CLSI M27-A3/M38-A2); type: cell-based
# [5] = test system: Cryptococcus neoformans var. grubii; assay: as above; type: cell-based
# Aspergillus fumigatus = assay: Broth microdilution of invasive fungal isolates (CLSI M27-A3/M38-A2), MEC; type: cell-based; details: 56 isolates
smiles,measurement,setting,value
"CCCCCOc1ccc(-c2ccc(-c3ccc(C(=O)N[C@H]4C[C@@H](O)[C@@H](O)NC(=O)[C@@H]5[C@@H](O)[C@@H](C)CN5C(=O)[C@H]([C@@H](C)O)NC(=O)[C@H]([C@H](O)[C@@H](O)c5ccc(O)cc5)NC(=O)[C@@H]5C[C@@H](O)CN5C(=O)[C@H]([C@@H](C)O)NC4=O)cc3)cc2)cc1 [ANID, anidulafungin] ({pTerphenylCO(4''-OnC5H11)}-[Orn(4R-OH,5R-OH)]T[Hyp][hTyr(3S-OH,4S-OH)]T[Pro(3S-OH,4S-Me)]; lactam 1-C)",MIC fold-shift,"C. krusei ATCC 6258 [1]; ATCC 6258, WT to P20",2
same,MIC,C. krusei ATCC 6258 [1]; ATCC6258,0.125 µg/mL
same,MIC,"C. krusei ATCC 6258 [1]; ATCC6258, read-out: MIC P20",0.125 µg/mL
same,MIC,"[2]; ATCC2001|ATCC90030, 24 h, read-out: Broth MIC, ATCC 2001 wild-type, 24 h, ~50% inhibition",0.06 µg/mL
same,MIC,"[2]; ATCC2001|ATCC90030, 24 h, read-out: Broth MIC, ATCC 90030 wild-type, 24 h, ~50% inhibition",0.06 µg/mL
same,MIC,"[2]; ATCC2001|ATCC90030, ATCC 2001 spontaneous mutant, Fks2 HS1 D666N",0.5 µg/mL
same,MIC,"[2]; ATCC2001|ATCC90030, ATCC 2001 spontaneous mutant, Fks2 HS1 D666Y",0.5 µg/mL
same,MIC,"[2]; ATCC2001|ATCC90030, ATCC 2001 spontaneous mutant, Fks2 HS1 R665G",0.5 µg/mL
same,MIC,"[2]; ATCC2001|ATCC90030, ATCC 2001 spontaneous mutant, Fks2 HS1 S663F",1 µg/mL
same,MIC,"[2]; ATCC2001|ATCC90030, ATCC 2001 spontaneous mutant, Fks2 HS1 ΔF659",4 µg/mL
same,MIC,"[2]; ATCC2001|ATCC90030, ATCC 2001 spontaneous mutant, Fks2 HS2 R1378S",0.25 µg/mL
same,MIC,"[2]; ATCC2001|ATCC90030, ATCC 90030 spontaneous mutant, Fks2 HS1 D666H",1 µg/mL
same,MIC,"[2]; ATCC2001|ATCC90030, ATCC 90030 spontaneous mutant, Fks2 HS1 ΔF659",2 µg/mL
same,MIC90,"[3]; 24 h, pH 4",0.03 µg/mL
same,MIC90,"[3]; 24 h, pH 7",0.008 µg/mL
same,MIC90,"[3]; 48 h, pH 4",0.06 µg/mL
same,MIC,"[3]; 48 h, pH 4, fluconazole-resistant isolate 1, pH 4",0.03 µg/mL
same,MIC,"[3]; 48 h, pH 4, fluconazole-resistant isolate 2, pH 4",0.03 µg/mL
same,MIC,"[3]; 48 h, pH 4, fluconazole-resistant isolate 3, pH 4",0.03 µg/mL
same,MIC,"[3]; 48 h, pH 4, fluconazole-resistant isolate 4, pH 4",0.06 µg/mL
same,MIC,"[3]; 48 h, pH 4, fluconazole-resistant isolate 5, pH 4",0.125 µg/mL
same,MIC,"[3]; 48 h, pH 4, fluconazole-resistant isolate 6, pH 4",0.06 µg/mL
same,MIC,"[3]; 48 h, pH 4, fluconazole-resistant isolate 7, pH 4",0.06 µg/mL
same,MIC,"[3]; 48 h, pH 4, fluconazole-resistant isolate 8, pH 4",0.06 µg/mL
same,MIC,"[3]; 48 h, pH 4, fluconazole-resistant isolate 9, pH 4",0.25 µg/mL
same,MIC,"[3]; 48 h, pH 4, fluconazole-resistant isolate 10, pH 4",0.06 µg/mL
same,MIC90,"[3]; 48 h, pH 7",0.03 µg/mL
same,MIC,"[3]; 48 h, pH 7, fluconazole-resistant isolate 1, pH 7",0.008 µg/mL
same,MIC,"[3]; 48 h, pH 7, fluconazole-resistant isolate 2, pH 7",0.03 µg/mL
same,MIC,"[3]; 48 h, pH 7, fluconazole-resistant isolate 3, pH 7",0.008 µg/mL
same,MIC,"[3]; 48 h, pH 7, fluconazole-resistant isolate 4, pH 7",0.008 µg/mL
same,MIC,"[3]; 48 h, pH 7, fluconazole-resistant isolate 5, pH 7",0.016 µg/mL
same,MIC,"[3]; 48 h, pH 7, fluconazole-resistant isolate 6, pH 7",0.008 µg/mL
same,MIC,"[3]; 48 h, pH 7, fluconazole-resistant isolate 7, pH 7",0.008 µg/mL
same,MIC,"[3]; 48 h, pH 7, fluconazole-resistant isolate 8, pH 7",0.008 µg/mL
same,MIC,"[3]; 48 h, pH 7, fluconazole-resistant isolate 9, pH 7",0.125 µg/mL
same,MIC,"[3]; 48 h, pH 7, fluconazole-resistant isolate 10, pH 7",0.008 µg/mL
same,MIC,C. krusei ATCC 6258 [4],0.06 µg/mL
same,Cumulative % of isolates inhibited at MIC 0.015 μg/mL,Candida albicans; 251 isolates,(67.7) %
same,Cumulative % of isolates inhibited at MIC 0.03 μg/mL,Candida albicans; 251 isolates,(89.2) %
same,Cumulative % of isolates inhibited at MIC 0.06 μg/mL,Candida albicans; 251 isolates,(98.0) %
same,Cumulative % of isolates inhibited at MIC 0.12 μg/mL,Candida albicans; 251 isolates,(100.0) %
same,Cumulative % of isolates inhibited at MIC ≤0.008 μg/mL,Candida albicans; 251 isolates,(27.5) %
same,Number of isolates inhibited at MIC 0.015 μg/mL,Candida albicans; 251 isolates,101
same,Number of isolates inhibited at MIC 0.03 μg/mL,Candida albicans; 251 isolates,54
same,Number of isolates inhibited at MIC 0.06 μg/mL,Candida albicans; 251 isolates,22
same,Number of isolates inhibited at MIC 0.12 μg/mL,Candida albicans; 251 isolates,5
same,Number of isolates inhibited at MIC ≤0.008 μg/mL,Candida albicans; 251 isolates,69
same,MIC50,Candida albicans; Candida albicans,0.015 µg/mL
same,MIC90,Candida albicans; Candida albicans,0.06 µg/mL
same,Cumulative % of isolates inhibited at MIC >8 μg/mL,[5]; 19 isolates,(100.0) %
same,Number of isolates inhibited at MIC >8 μg/mL,[5]; 19 isolates,19
same,MIC50,[5]; Cryptococcus neoformans,8 µg/mL
same,MIC90,[5]; Cryptococcus neoformans,8 µg/mL
same,Cumulative % of isolates inhibited at MEC 0.015 μg/mL,Aspergillus fumigatus,(91.1) %
same,Cumulative % of isolates inhibited at MEC 0.03 μg/mL,Aspergillus fumigatus,(100.0) %
same,Cumulative % of isolates inhibited at MEC ≤0.008 μg/mL,Aspergillus fumigatus,(53.6) %
